The experiment has as its target T1, furin (Homo sapiens, UniProt P09958).
T1 construct: made in house; host or cells: Drosophila S2 cells (Invitrogen expression system)
The experiment in a line: biochemical.

The mark [1] stands for this setting: furin, Pyr-RTKR-AMC substrate, alanine scanning mutagenesis of the H5 furin cleavage sequence (Table 2), read-out: Ki.
Setting [2] is: furin, Pyr-RTKR-AMC substrate, optimization of the inhibitory peptides (Table 3), read-out: Ki.

In general, pKi refers to −log10 of the Ki, conventionally taken in molar units.

Molecules are shown by their SMILES. pKi: −log10 of the molar value. Read-outs that look alike come from different tables or passages of the source. Non-standard residues stand in square brackets, D forms with d. Residues, ends and D or L forms follow the SMILES beside them. Sar = CNCC(=O)O

T1 sequence (P09958 108-794 limits assumed): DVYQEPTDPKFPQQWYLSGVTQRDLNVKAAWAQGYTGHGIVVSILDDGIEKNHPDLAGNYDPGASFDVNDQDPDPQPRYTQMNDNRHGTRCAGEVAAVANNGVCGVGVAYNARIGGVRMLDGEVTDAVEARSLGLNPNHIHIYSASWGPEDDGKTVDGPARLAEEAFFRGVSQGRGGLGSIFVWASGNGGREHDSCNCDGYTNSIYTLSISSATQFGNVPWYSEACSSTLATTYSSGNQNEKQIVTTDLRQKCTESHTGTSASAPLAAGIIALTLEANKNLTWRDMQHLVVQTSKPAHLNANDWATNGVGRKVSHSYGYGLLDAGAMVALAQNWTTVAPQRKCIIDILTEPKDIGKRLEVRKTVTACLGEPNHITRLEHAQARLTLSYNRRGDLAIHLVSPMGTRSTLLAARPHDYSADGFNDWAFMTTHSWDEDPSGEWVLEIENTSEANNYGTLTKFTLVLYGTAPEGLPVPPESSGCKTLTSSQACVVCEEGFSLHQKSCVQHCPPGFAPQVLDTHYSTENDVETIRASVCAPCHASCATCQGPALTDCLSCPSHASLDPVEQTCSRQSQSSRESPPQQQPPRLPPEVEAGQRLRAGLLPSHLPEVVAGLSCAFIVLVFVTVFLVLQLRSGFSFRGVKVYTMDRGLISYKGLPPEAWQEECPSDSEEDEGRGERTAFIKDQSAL

For `C[C@H](NC(=O)[C@H](CCCNC(=N)N)NC(=O)[C@H](CCCNC(=N)N)NC(=O)[C@H](CCC(=O)O)NC(=O)[C@H](CCCNC(=N)N)NC(=O)[C@@H]1CCCN1C(=O)[C@@H](N)[C@@H](C)O)C(=O)N[C@@H](CCCCN)C(=O)N[C@@H](CCCCN)C(=O)N[C@@H](CCCNC(=N)N)C(=O)N(C)CC(N)=O` (H-TPRERRAKKR[Sar]-NH2), under setting [1], the pKi was below 7.00.

Consider `CC(C)[C@H](NC(=O)[C@H](CCCNC(=N)N)NC(=O)[C@H](C)NC(=O)[C@H](C)NC(=O)[C@H](CCCNC(=N)N)NC(=O)[C@H](CCCNC(=N)N)NC(=O)[C@H](CCCNC(=N)N)NC(=O)[C@H](CCC(=O)O)NC(=O)[C@H](CCCNC(=N)N)NC(=O)[C@@H]1CCCN1C(=O)[C@@H](N)[C@@H](C)O)C(N)=O` (H-TPRERRRAARV-NH2), for which the negative-log Ki (pKi) under setting [1] was below 7.00.

As to `C[C@H](NC(=O)[C@H](CCCNC(=N)N)NC(=O)[C@H](CCCNC(=N)N)NC(=O)[C@H](CCCNC(=N)N)NC(=O)[C@H](CCC(=O)O)NC(=O)[C@H](CCCNC(=N)N)NC(=O)[C@@H]1CCCN1C(=O)[C@@H](N)[C@@H](C)O)C(=O)N[C@@H](CCCCN)C(=O)N[C@@H](CCCNC(=N)N)C(N)=O` (H-TPRERRRAKR-NH2), the pKi under setting [1] is below 7.00.

As for `CC(C)[C@H](NC(=O)[C@H](CCCNC(=N)N)NC(=O)[C@H](CCCCN)NC(=O)[C@H](C)NC(=O)[C@H](CCCNC(=N)N)NC(=O)[C@H](CCCNC(=N)N)NC(=O)[C@H](CCCNC(=N)N)NC(=O)[C@H](CCC(=O)O)NC(=O)[C@H](CCCNC(=N)N)NC(=O)[C@@H]1CCCN1C(=O)[C@@H](N)[C@@H](C)O)C(N)=O` (H-TPRERRRAKRV-NH2), under setting [1], the pKi was below 7.00.

As for `C[C@H](NC(=O)[C@H](CCCNC(=N)N)NC(=O)[C@H](CCCNC(=N)N)NC(=O)[C@H](CCCNC(=N)N)NC(=O)[C@H](CCC(=O)O)NC(=O)[C@H](CCCNC(=N)N)NC(=O)[C@@H]1CCCN1C(=O)[C@@H](N)[C@@H](C)O)C(=O)N[C@@H](CCCCN)C(=O)N[C@@H](CCCNC(=N)N)C(=O)N(C)CC(N)=O` (H-TPRERRRAKR[Sar]-NH2), the pKi under setting [1] is below 7.00.

Take `C[C@H](NC(=O)[C@H](C)NC(=O)[C@H](CCCCN)NC(=O)[C@H](CCCNC(=N)N)NC(=O)[C@H](CCCNC(=N)N)NC(=O)[C@H](CCCNC(=N)N)NC(=O)[C@H](CCC(=O)O)NC(=O)[C@H](CCCNC(=N)N)NC(=O)[C@@H]1CCCN1C(=O)[C@@H](N)[C@@H](C)O)C(N)=O` (H-TPRERRRKAA-NH2): under setting [1], the negative-log Ki (pKi) is below 7.00.

For the compound `C[C@H](NC(=O)[C@H](C)NC(=O)[C@H](CCCCN)NC(=O)[C@H](CCCNC(=N)N)NC(=O)[C@H](CCCNC(=N)N)NC(=O)[C@H](CCCNC(=N)N)NC(=O)[C@H](CCC(=O)O)NC(=O)[C@H](CCCNC(=N)N)NC(=O)[C@@H]1CCCN1C(=O)[C@@H](N)[C@@H](C)O)C(=O)NCC(N)=O` (H-TPRERRRKAAG-NH2), the negative-log Ki (pKi) under setting [1] is below 7.00.

For the compound `CC(C)[C@H](NC(=O)[C@H](C)NC(=O)[C@H](C)NC(=O)[C@H](CCCCN)NC(=O)[C@H](CCCNC(=N)N)NC(=O)[C@H](CCCNC(=N)N)NC(=O)[C@H](CCCNC(=N)N)NC(=O)[C@H](CCC(=O)O)NC(=O)[C@H](CCCNC(=N)N)NC(=O)[C@@H]1CCCN1C(=O)[C@@H](N)[C@@H](C)O)C(N)=O` (H-TPRERRRKAAV-NH2), the pKi under setting [1] was below 7.00.

For the compound `C[C@H](NC(=O)[C@H](CCCCN)NC(=O)[C@H](CCCNC(=N)N)NC(=O)[C@H](CCCNC(=N)N)NC(=O)[C@H](CCCNC(=N)N)NC(=O)[C@H](CCC(=O)O)NC(=O)[C@H](CCCNC(=N)N)NC(=O)[C@@H]1CCCN1C(=O)[C@@H](N)[C@@H](C)O)C(=O)N[C@@H](C)C(=O)N(C)CC(N)=O` (H-TPRERRRKAA[Sar]-NH2), the negative logarithm of the Ki (pKi) under setting [1] was below 7.00.

On to `C[C@H](NC(=O)[C@H](CCCCN)NC(=O)[C@H](CCCNC(=N)N)NC(=O)[C@H](CCCNC(=N)N)NC(=O)[C@H](CCCNC(=N)N)NC(=O)[C@H](CCC(=O)O)NC(=O)[C@H](CCCNC(=N)N)NC(=O)[C@@H]1CCCN1C(=O)[C@@H](N)[C@@H](C)O)C(=O)N[C@@H](CCCNC(=N)N)C(N)=O` (H-TPRERRRKAR-NH2), for which, under setting [1], the pKi was below 7.00.

As to `CC(C)[C@H](NC(=O)[C@H](CCCNC(=N)N)NC(=O)[C@H](C)NC(=O)[C@H](CCCCN)NC(=O)[C@H](CCCNC(=N)N)NC(=O)[C@H](CCCNC(=N)N)NC(=O)[C@H](CCCNC(=N)N)NC(=O)[C@H](CCC(=O)O)NC(=O)[C@H](CCCNC(=N)N)NC(=O)[C@@H]1CCCN1C(=O)[C@@H](N)[C@@H](C)O)C(N)=O` (H-TPRERRRKARV-NH2), the pKi under setting [1] was below 7.00.

Regarding `C[C@H](NC(=O)[C@H](CCCCN)NC(=O)[C@H](CCCNC(=N)N)NC(=O)[C@H](CCCNC(=N)N)NC(=O)[C@H](CCCNC(=N)N)NC(=O)[C@H](CCC(=O)O)NC(=O)[C@H](CCCNC(=N)N)NC(=O)[C@@H]1CCCN1C(=O)[C@@H](N)[C@@H](C)O)C(=O)N[C@@H](CCCNC(=N)N)C(=O)N(C)CC(N)=O` (H-TPRERRRKAR[Sar]-NH2), the pKi under setting [1] was below 7.00.

As to `C[C@H](NC(=O)[C@H](CCCCN)NC(=O)[C@H](CCCCN)NC(=O)[C@H](CCCNC(=N)N)NC(=O)[C@H](CCCNC(=N)N)NC(=O)[C@H](CCCNC(=N)N)NC(=O)[C@H](CCC(=O)O)NC(=O)[C@H](CCCNC(=N)N)NC(=O)[C@@H]1CCCN1C(=O)[C@@H](N)[C@@H](C)O)C(N)=O` (H-TPRERRRKKA-NH2), the negative logarithm of the Ki (pKi) under setting [1] was below 7.00.

Take `CC(C)[C@H](NC(=O)[C@H](C)NC(=O)[C@H](CCCCN)NC(=O)[C@H](CCCCN)NC(=O)[C@H](CCCNC(=N)N)NC(=O)[C@H](CCCNC(=N)N)NC(=O)[C@H](CCCNC(=N)N)NC(=O)[C@H](CCC(=O)O)NC(=O)[C@H](CCCNC(=N)N)NC(=O)[C@@H]1CCCN1C(=O)[C@@H](N)[C@@H](C)O)C(N)=O` (H-TPRERRRKKAV-NH2): under setting [1], the negative logarithm of the Ki (pKi) was below 7.00.

For the compound `C[C@H](NC(=O)[C@H](CCCCN)NC(=O)[C@H](CCCCN)NC(=O)[C@H](CCCNC(=N)N)NC(=O)[C@H](CCCNC(=N)N)NC(=O)[C@H](CCCNC(=N)N)NC(=O)[C@H](CCC(=O)O)NC(=O)[C@H](CCCNC(=N)N)NC(=O)[C@@H]1CCCN1C(=O)[C@@H](N)[C@@H](C)O)C(=O)N(C)CC(N)=O` (H-TPRERRRKKA[Sar]-NH2), under setting [1], the negative logarithm of the Ki (pKi) was below 7.00.

As to `C[C@@H](O)[C@H](N)C(=O)N1CCC[C@H]1C(=O)N[C@@H](CCCNC(=N)N)C(=O)N[C@@H](CCC(=O)O)C(=O)N[C@@H](CCCNC(=N)N)C(=O)N[C@@H](CCCNC(=N)N)C(=O)N[C@@H](CCCNC(=N)N)C(=O)N[C@@H](CCCCN)C(=O)N[C@@H](CCCCN)C(=O)N[C@@H](CCCNC(=N)N)C(N)=O` (H-TPRERRRKKR-NH2), under setting [1], the negative-log Ki (pKi) was below 7.00.

In the case of `CC(C)[C@H](NC(=O)[C@H](CCCNC(=N)N)NC(=O)[C@H](CCCCN)NC(=O)[C@H](CCCCN)NC(=O)[C@H](CCCNC(=N)N)NC(=O)[C@H](CCCNC(=N)N)NC(=O)[C@H](CCCNC(=N)N)NC(=O)[C@H](CCC(=O)O)NC(=O)[C@H](CCCNC(=N)N)NC(=O)[C@@H]1CCCN1C(=O)[C@@H](N)[C@@H](C)O)C(N)=O` (H-TPRERRRKKRV-NH2), under setting [1], the negative-log Ki (pKi) is below 7.00.

Consider `C[C@@H](O)[C@H](N)C(=O)N1CCC[C@H]1C(=O)N[C@@H](CCCNC(=N)N)C(=O)N[C@@H](CCC(=O)O)C(=O)N[C@@H](CCCNC(=N)N)C(=O)N[C@@H](CCCNC(=N)N)C(=O)N[C@@H](CCCNC(=N)N)C(=O)N[C@@H](CCCCN)C(=O)N[C@@H](CCCCN)C(=O)N[C@@H](CCCNC(=N)N)C(=O)N(C)CC(N)=O` (H-TPRERRRKKR[Sar]-NH2), for which, under setting [1], the negative logarithm of the Ki (pKi) was below 7.00.

Consider `C[C@@H](O)[C@H](N)C(=O)N1CCC[C@H]1C(=O)N[C@@H](CCCN=C(N)N)C(=O)NCC(=O)N[C@@H](CCCN=C(N)N)C(=O)N[C@@H](CCCN=C(N)N)C(=O)N[C@@H](CCCN=C(N)N)C(=O)N[C@@H](CCCCN)C(=O)N[C@@H](CCCCN)C(=O)N[C@@H](CCCN=C(N)N)C(=O)NCC(N)=O` (H-TPRGRRRKKRG-NH2), for which the pKi under setting [2] is 7.33.

As for `C[C@@H](O)[C@H](NC(=O)[C@H](CCCNC(=N)N)NC(=O)[C@H](CCCCN)NC(=O)[C@H](CCCCN)NC(=O)[C@@H](N)CCCNC(=N)N)C(N)=O` [RKKRT] (H-RKKRT-NH2), the pKi (furin, Pyr-RTKR-AMC substrate, N-terminal deletions (Example 2, Table 6), read-out: Ki) is 6.00.

As to `C[C@@H](O)[C@H](N)C(=O)N1CCC[C@H]1C(=O)N[C@@H](CCC(N)=O)C(=O)N[C@@H](CCCNC(=N)N)C(=O)NCCC(=O)N[C@@H](CCCNC(=N)N)C(=O)N[C@@H](CCCNC(=N)N)C(=O)N[C@@H](CCCNC(=N)N)C(=O)N[C@@H](CCCCN)C(=O)N[C@@H](CCCCN)C(=O)N[C@@H](CCCNC(=N)N)C(=O)NCC(N)=O` [TPQR1RRRKKRG], the negative logarithm of the Ki (pKi) under setting [2] is below 7.00.

`C[C@@H](O)[C@H](N)C(=O)N1CCC[C@H]1C(=O)N[C@@H](CCC(N)=O)C(=O)N[C@@H](CCCNC(=N)N)C(=O)NCCCCCC(=O)N[C@@H](CCCNC(=N)N)C(=O)N[C@@H](CCCNC(=N)N)C(=O)N[C@@H](CCCNC(=N)N)C(=O)N[C@@H](CCCCN)C(=O)N[C@@H](CCCCN)C(=O)N[C@@H](CCCNC(=N)N)C(=O)NCC(N)=O` [TPQR2RRRKKRG]: under setting [2], the pKi was below 7.00.

In the case of `C[C@@H](O)[C@H](N)C(=O)N1CCC[C@H]1C(=O)N[C@@H](CCC(N)=O)C(=O)N[C@@H](CCCNC(=N)N)C(=O)N[C@@H](CCCNC(N)=O)C(=O)N[C@@H](CCCNC(=N)N)C(=O)N[C@@H](CCCNC(=N)N)C(=O)N[C@@H](CCCNC(=N)N)C(=O)N[C@@H](CCCCN)C(=O)N[C@@H](CCCCN)C(=O)N[C@@H](CCCNC(=N)N)C(=O)NCC(N)=O` [TPQR4RRRKKRG], the negative-log Ki (pKi) was below 7.00.

Turning to `C[C@@H](O)[C@H](N)C(=O)N1CCC[C@H]1C(=O)N[C@@H](CCC(N)=O)C(=O)N[C@@H](CCCNC(=N)N)C(=O)N[C@@H](CC1CCCCC1)C(=O)N[C@@H](CCCNC(=N)N)C(=O)N[C@@H](CCCNC(=N)N)C(=O)N[C@@H](CCCNC(=N)N)C(=O)N[C@@H](CCCCN)C(=O)N[C@@H](CCCCN)C(=O)N[C@@H](CCCNC(=N)N)C(=O)NCC(N)=O` [TPQR7RRRKKRG], the pKi under setting [2] was below 7.00.

For the compound `CC[C@H](NC(=O)[C@H](CCCNC(=N)N)NC(=O)[C@H](CCC(N)=O)NC(=O)[C@@H]1CCCN1C(=O)[C@@H](N)[C@@H](C)O)C(=O)N[C@@H](CCCNC(=N)N)C(=O)N[C@@H](CCCNC(=N)N)C(=O)N[C@@H](CCCNC(=N)N)C(=O)N[C@@H](CCCCN)C(=O)N[C@@H](CCCCN)C(=O)N[C@@H](CCCNC(=N)N)C(=O)NCC(N)=O` [TPQR8RRRKKRG], the pKi under setting [2] is below 7.00.
